In the NIST ThermoML archive (doi:10.1016/j.fluid.2019.05.015):

Test: refractive index (Na D-line) (dimensionless); xn = mol fraction of the nth substance listed
Details: 100 kPa, Liquid, Standard Abbe refractometry

O=C1OCCO1 [ethylene carbonate] + CCn1cc[n+](C)c1.[Br-]
refractive index
Details | x1 = 0.106 | x1 = 0.222 | x1 = 0.2945 | x1 = 0.3671 | x1 = 0.4655 | x1 = 0.6002 | x1 = 0.7142 | x1 = 0.7981 | x1 = 0.8946
298.2 K | 1.5505 | 1.5405 | 1.531 | 1.5245 | 1.5105 | 1.498 | 1.4835 | 1.4695 | 1.45
308.2 K | 1.548 | 1.5385 | 1.529 | 1.5235 | 1.5085 | 1.4955 | 1.481 | 1.466 | 1.445
318.2 K | 1.5455 | 1.5345 | 1.5275 | 1.52 | 1.5065 | 1.493 | 1.4775 | 1.4635 | 1.4425

O=C1OCCO1 [ethylene carbonate] + O
Details | refractive index
298.2 K, x2 = 0.0993 | 1.4205
298.2 K, x2 = 0.1962 | 1.4175
298.2 K, x2 = 0.2943 | 1.414
298.2 K, x2 = 0.3321 | 1.4125
298.2 K, x2 = 0.4172 | 1.4085
298.2 K, x2 = 0.4758 | 1.4055
298.2 K, x2 = 0.5337 | 1.401
298.2 K, x2 = 0.5766 | 1.399
298.2 K, x2 = 0.6159 | 1.397
298.2 K, x2 = 0.6887 | 1.391
298.2 K, x2 = 0.7258 | 1.386
298.2 K, x2 = 0.7789 | 1.3805
298.2 K, x2 = 0.8239 | 1.375
298.2 K, x2 = 0.881 | 1.364
298.2 K, x2 = 0.9186 | 1.356
298.2 K, x2 = 0.9593 | 1.345
298.2 K, x2 = 0.9778 | 1.34
308.2 K, x2 = 0.0993 | 1.417
308.2 K, x2 = 0.1962 | 1.4145
308.2 K, x2 = 0.2943 | 1.411
308.2 K, x2 = 0.3321 | 1.409
308.2 K, x2 = 0.4172 | 1.4055
308.2 K, x2 = 0.4739 | 1.4015
308.2 K, x2 = 0.5337 | 1.3985
308.2 K, x2 = 0.5753 | 1.3955
308.2 K, x2 = 0.6159 | 1.3925
308.2 K, x2 = 0.688 | 1.3875
308.2 K, x2 = 0.725 | 1.381
308.2 K, x2 = 0.7785 | 1.3765
308.2 K, x2 = 0.8234 | 1.3705
308.2 K, x2 = 0.8807 | 1.361
308.2 K, x2 = 0.9183 | 1.354
308.2 K, x2 = 0.9591 | 1.3435
308.2 K, x2 = 0.9777 | 1.3385
318.2 K, x2 = 0.0993 | 1.414
318.2 K, x2 = 0.1962 | 1.4105
318.2 K, x2 = 0.2943 | 1.4075
318.2 K, x2 = 0.3321 | 1.406
318.2 K, x2 = 0.4172 | 1.4015
318.2 K, x2 = 0.473 | 1.3985
318.2 K, x2 = 0.5315 | 1.395
318.2 K, x2 = 0.5744 | 1.3925
318.2 K, x2 = 0.6147 | 1.3895
318.2 K, x2 = 0.6871 | 1.384
318.2 K, x2 = 0.7243 | 1.3785
318.2 K, x2 = 0.7779 | 1.374
318.2 K, x2 = 0.8228 | 1.368
318.2 K, x2 = 0.8803 | 1.3585
318.2 K, x2 = 0.9181 | 1.3505
318.2 K, x2 = 0.959 | 1.3425
318.2 K, x2 = 0.9777 | 1.337
